Results on one molecule are retold here after patent US20160318856A1, “Substituted Urea eIF2alpha Kinase Activators” (THE BRIGHAM AND WOMEN'S HOSPITAL, INC., priority 2013, published 2016).

Assay [1] concerns PC-3. Nature of the assay: cell proliferation assay, PC-3. Particulars: Homo sapiens; PC-3, Prostate. Type of assay: cell-based. The method, then: (§1) Cells were seeded in 96-well plates and maintained for 5 days in the presence of 0.5 to 20 μM of individual compound, and cell proliferation was measured by the sulforhodamine B (SRB) assay as described previously (see, for example, Palakurthi, S. S. et al. Cancer Research 2000, 60(11), 2919-2925). Briefly, at the end of a 5-day treatment, cells were fixed in 10% cold trichloroacetic acid. Cell number was estimated by measuring the remaining bound dye of sulforhodamine B after washing. The percentage of growth was calculated by using the equation: 100×[(T−T0)/(C−T0)], where T and C represent the absorbance in treated and control cultures at Day 5, and T0 at time zero, respectively. If T is less than T0, cell death has occurred and can be calculated from 100×[(T−T0)/T0].

The test system of assay [2] is ACHN. Put plainly: cell proliferation assay, ACHN. Type of assay: cell-based. Particulars: Homo sapiens, Kidney. As to the method: as §1
In assay [3] the test system is HT-29. Put plainly: cell proliferation assay, HT-29. Type of assay: cell-based. Particulars: Homo sapiens; HT-29, Colon. The method, then: as §1
In assay [4] the test system is T47D. Put plainly: cell proliferation assay, T47D. Type of assay: cell-based. Particulars: Homo sapiens, Breast. As to the method:
as §1

Assay [5] has as its system NIH/3T3 fibroblast cells. Put plainly: cell proliferation (SRB) assay, NIH/3T3. Type of assay: cell-based. Particulars: for IC50: Mus musculus, NIH3T3. The method, then: as §1
The experiments were conducted in triplicate, and each experiment was independently performed three times. IC50=effective dose of drug that inhibit cell proliferation by 50%. Data are shown as Mean±S.E.M.
Compounds I-6p, I-17, I-18 and I-20 were tested in NIH/3T3 fibroblast and CRL-2813 melanoma cancer cells in cell proliferation assay. The experiment was conducted in triplicate and each experiment was independently performed three times. Data are shown as Mean IC50±S.E.M.

Assay [6] relates to MCF-7 human breast cancer cells. Put plainly: cell proliferation assay, MCF-7. The format is cell-based. Particulars: MCF7, MCF-7, Breast. The method, then:
as §1

Assay [7] concerns BAF-3. Put plainly: cell proliferation assay, BAF-3. Type of assay: cell-based. Particulars: Mus musculus, BaF3; BAF-3, Leukemia. As to the method: as §1
In assay [8] the test system is CaSki. Put plainly: cell proliferation assay, CaSki. Type of assay: cell-based. Particulars: Homo sapiens, Ca-Ski, Cervix. As to the method:
as §1

Assay [9] relates to eIF2α phosphorylation (eIF2•GTP•Met-tRNAi ternary complex; HRI activation). Put plainly: surrogate dual luciferase eIF2α phosphorylation (ternary complex) assay. The format is cell-based, human. Particulars: Homo sapiens; surrogate eIF2α phosphorylation assay, Table 3; read-out: Emax (F/R). In outline: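 Cell-based dual luciferase reporter: firefly luciferase behind the ATF-4 5′UTR (uORFs) and renilla luciferase behind a uORF-free 5′UTR, read with a dual glow kit. Activity given as firefly/renilla ratio normalised to DMSO wells set at 1, with a rising ratio reflecting reduced ternary complex (e.g., HRI activation).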

The subject of assay [10] is CRL-2813 human melanoma cancer cells. Nature of the assay: cell proliferation (SRB) assay, CRL-2813. The format is cell-based. Particulars: Homo sapiens, CRL2813. In outline:
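Cells exposed 5 days to 0.5–20 μM compound, then TCA-fixed and stained with sulforhodamine B. Growth as 100×[(T−T0)/(C−T0)] from absorbance of treated, control and time-zero cultures; cell death as 100×[(T−T0)/T0] where T is below T0.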

Where two headings read alike, the source gives them in different places.

On to `O=C(Nc1cccc(C(F)(F)F)c1)NC1CCC(Oc2ccc(OC(F)(F)F)cc2)CC1` (stereo not shown) [Compound I-17, 1-(4-(4-(trifluoromethoxy)phenoxy)cyclohexyl)-3-(3-(trifluoromethyl)phenyl)urea], for which the IC50 amounted to 2900 nM in assay [1]; 1400 nM in [2]; 2700 nM in [3]; 1200 nM in [4]; 3400 ± 200 nM in assay [5] (NIH/3T3, Table 5, Mean±S.E.M., read-out: IC50); 3400 ± 200 nM in assay [5] (NIH/3T3, Table 8, Mean IC50±S.E.M., read-out: IC50 of compounds). The IC50 turned out to be 1300 nM in assay [6]; 800 nM in [7]; 2800 nM in [8]; 690 ± 100 nM in assay [10] (CRL-2813, Table 8, Mean IC50±S.E.M., read-out: IC50 of compounds); 690 ± 100 nM in [10] (cell proliferation assay, Table 3, cell line not named, values equal CRL-2813 values of Table 8, read-out: IC50). Moreover, the “fold higher potency on cancer cells compared to non-transformed cells” value in assay [5] (CRL-2813 human melanoma vs NIH-3T3 fibroblast) is “five-fold higher potency”. Besides, the maximal fold induction in [9] was 15.4.
